The source of these data is EP1282680B1, “COMPOSITIONS COMPRISING CYCLODEXTRIN” (THE PROCTER & GAMBLE COMPANY, priority 2000, dated 2001).

A short description of data set [1]: Elevation of surfactant surface tension in the presence of cyclodextrin. The conditions noted are these: in the presence of a typical cyclodextrin like hydroxypropyl beta-cyclodextrin and methylated beta-cyclodextrin (1%). It is filed as physicochemical. The text has this:
Cyclodextrin-incompatible surfactants generally can be readily identified by the noticeable effect of cyclodextrin on the surface tension provided by the cyclodextrin-incompatible surfactant This is achieved by determining the surface tension (in dyne/cm) of aqueous solutions of the cyclodextrin-incompatible surfactant in the presence and in the absence of 1% of a specific cyclodextrin in the solutions. The aqueous solutions contain cyclodextrin-incompatible surfactant at concentrations of approximately 0.5%, 0.1%, 0.01%, and 0.005%. The cyclodextrin can affect the surface activity of a surfactant by elevating the surface tension of the surfactant solution. […]
Suitable cyclodextrin-compatible surfactants can also be readily identified by the absence of effect of cyclodextrin on the surface tension provided by the surfactant. […]

Data set [2] is described as follows: CD interaction of perfume components. Format: physicochemical. As to conditions: weak = cyclodextrin-compatible; significant or strong = cyclodextrin-incompatible. The text has this:
The following table illustrates the molecular weight property of some of the cyclodextrin-incompatible enduring (hydrophobic) perfume materials (i.e. having significant or strong CD interaction) versus cyclodextrin-compatible perfume materials (i.e. having weak CD interaction).

The conditions of data set [3]: cited from earlier work.
The nature of data set [4]: Complexation constant with cyclodextrin, spectral displacement method with phenolphthalein. It is filed as binding. The conditions noted are these: unit not given, the text gives complexation constants in M^-1. The text has this: (§1) A spectral displacement method with phenolphthalein is used to determine the complexation constant between cyclodextrin and a given material, especially for surfactants. This method of determining complexation constants with cyclodextrins is described in detail in the following references: Sasaki, KJ., Christian, S.D., and Tucker, E.E., "Study of the Stability of 1:1 Complexes Between Aliphatic Alcohols and b-Cyclodextrins in Aqueous Solution," Fluid Phase Equilibria, Vol. 49, (Amsterdam, Elsevier Science Publishers, 1989), pp. 281-89. Further information regarding spectral displacement methods can be found in other references, e.g. in Wilson, L.D., Siddall, S.R, and Verrall RE., "A Spectral Displacement Study of the Binding Constants of Cyclodextrin-Hydrocarbon and - Fluorocarbon Surfactant Inclusion Complexes," Canadian Journal of Chemistry, Vol. 75, (NRC Canada 1997), pp. 927-933.
The test method is based on the fact that phenolphthalein will complex with cyclodextrin and in complexed form is colorless. However, it has a strong color at pH 10.5 when in non-complexed form. Other, cyclodextrin-incompatible, materials themselves complex with the cyclodextrin and prevent the phenolphthalein from doing so. Thus the higher the complexation constant of the other component with cyclodextrin, the more non-complexed phenolphthalein will be present and the stronger the observed color.
The complexation constant of a given material with cyclodextrin is obtained by an absorbance measurement in the visible region at 550 nm that is performed with a spectrophotometer at room temperature. All solutions are prepared in 4.0 x 10^-3 mol/l Na2CO3 solution to maintain a constant pH. The concentration of phenolphthalein is kept constant at 3.0 x 10^-5 mol/l. Cyclodextrin concentration and surfactant concentration are varied. Here, optimum parameter values for absorption coefficient of phonolphthalein at 550 nm is 33,000 M^-1 cm^-1, and the complexation constants of phenolphthalein with cyclodextrin and cyclodextrin derivatives are preliminary obtained. […] Complexation constants of cyclodextrin-compatible and/or cyclodextrin-incompatible materials arc determined with using the free, uncomplexed phenolphthalein concentration obtained by absorbance at 550 nm.

Data set [5] in a line: Complexation constant of phenolphthalein with beta-cyclodextrin, absorbance at 550 nm. It is filed as binding. The conditions noted are these: room temperature, 4.0 x 10^-3 mol/l Na2CO3 solution, pH 10.5.
Text: as §1, with “927-933. […]” for “927-933.”
The complexation constant of a given material with cyclodextrin is obtained by an absorbance measurement in the visible region at 550 nm that is performed with a spectrophotometer at room temperature. […] Complexation constants of cyclodextrin-compatible and/or cyclodextrin-incompatible materials arc determined with using the free, uncomplexed phenolphthalein concentration obtained by absorbance at 550 nm.

Where a name gives a salt, the structure may show the parent alone. A value given as a limit tells only on which side of the number the result lay.

On to dodecanolpoly(6)ethoxylate, for which the “elevation in surface tension” value in data set [1] is > 10%.

`CC(=O)C1(C)CC2=C(CCCC2(C)C)CC1C` (centres unmarked) [Iso-E Super]: in data set [2], the CD interaction result was “weak”.

In the case of `[H]/N=C(\N/C(=N/[H])NCCCCCCNC(=N)NC(=N)Nc1ccc(Cl)cc1)Nc1ccc(Cl)cc1` [diacetate salt, 1,1'-hexamethylene bis(5-(p-chlorophenyl)biguanide)], the solubility in water in data set [3] is reported as 1.8%.

As to `CCCCCCCCCCCCOS(=O)(=O)[O-].[Na+]` [Sodium dodecyl sulfate], the “Complexation Constant (K)” value in data set [4] is “about 22000”. Moreover, in data set [1], the “elevation in surface tension” value was > 10%.

Take `CCCCCCCCCCCCCC(=O)OC(C)C` [Iso-propyl Myristate]: the CD interaction entry in data set [2] is given as “weak”.

Lauramine oxide: in data set [4], the “Complexation Constant (K)” value is recorded as “about 7500”.

As to a-Me Ionone, in data set [2], the CD interaction result is recorded as “strong”.

In the case of Lawreth-6, in data set [4], the “Complexation Constant (K)” value is recorded as “about 10000”.

As to `CCCCCCC(C=O)=Cc1ccccc1` [Hexyl cinnamic Aldehyde], in data set [2], the CD interaction result is “weak”.

Regarding `CCOC(=O)c1ccccc1C(=O)OCC` [Diethyl Phthalate], the CD interaction entry in data set [2] is reported as “weak”.

`CC(=O)OC1CC2CC1C1CC=CC21` (centres unmarked) [Flor Acetate]: the CD interaction entry in data set [2] is on record as “strong”.

With `CC(C)(O)CCCC1=CCC(C=O)CC1` (centres unmarked) [Lyral], the CD interaction result in data set [2] is recorded as “weak”.

In the case of `CC(=O)OC(C)(C)C1CC=C(C)CC1` (centres unmarked) [Terpinyl Acetate], the CD interaction entry in data set [2] is recorded as “significant”.

On to `CCCCCCCCCCCC(=O)[O-].[Na+]` [Sodium laurate], for which the “Complexation Constant (K)” value in data set [4] is given as “about 16000”.

Consider `CC(C=O)Cc1ccc(C(C)(C)C)cc1` (centres unmarked) [Lilial, p-t-bucinal], for which the CD interaction entry in data set [2] was “strong”.

As to `CCC(=O)OC1CC2CC1C1CC=CC21` (centres unmarked) [Frutene], the CD interaction result in data set [2] is “strong”.

On to `CC(=O)OC1CCC(C(C)(C)C)CC1` (centres unmarked) [Vertenex, para-tert-butylcyclohexyl acetate], for which the CD interaction result in data set [2] was “strong”.

`[H]/N=C(\N/C(=N/[H])NCCCCCCNC(=N)NC(=N)Nc1ccc(Cl)cc1)Nc1ccc(Cl)cc1` [digluconate salt, 1,1'-hexamethylene bis(5-(p-chlorophenyl)biguanide)]: the solubility in water in data set [3] was 70%.

Regarding `CCCCCCOC(=O)c1ccccc1O` [Hexyl Salicylate], in data set [2], the CD interaction entry is listed as “weak”.

For `CCCCCC1C(=O)CCC1CC(=O)OC` (centres unmarked) [Methyl Dihydro Jasmonate], in data set [2], the CD interaction entry is recorded as “weak”.

In the case of `CC(C=O)Cc1ccc(C(C)C)cc1` (centres unmarked) [Cymal], the CD interaction entry in data set [2] is “strong”.

On to `O=C1OC(c2ccc(O)cc2)(c2ccc(O)cc2)c2ccccc21` [phenolphthalein], for which the “complexation constant of phenolphthalein with beta-cyclodextrin” value in data set [5] is “about 21,000 M^-1”.

With `CC1COCc2cc3c(cc21)C(C)(C)C(C)C3(C)C` (centres unmarked) [Galaxolide], the CD interaction result in data set [2] is reported as “weak”.

Consider `CC(=O)/C=C/C1C(C)=CCCC1(C)C` (centres unmarked) [a-ionone], for which the CD interaction result in data set [2] is given as “strong”.

On to `CCCCCCCCCCCC[N+](C)(C)C.[Br-]` [Dodecyltrimethylammonium bromide], for which the “Complexation Constant (K)” value in data set [4] is reported as “about 18100”.

With `CC(=O)C(C)=C(C)C(C)C(C)(C)C` (centres unmarked) [Koavone], the CD interaction entry in data set [2] is recorded as “strong”.

As to `CCC(C)(O)CCCC(C)C` (centres unmarked) [Tetrahydrolinalol], the CD interaction result in data set [2] is “significant”.

Regarding `O=C(Cc1ccccc1)OCCc1ccccc1` [Phenyl-Ethyl-Phenyl Acetate], the CD interaction result in data set [2] is recorded as “weak”.
